Data on 15 molecules can be found in US12304910B2, “Janus kinase (JAK) family inhibitor, preparation of same, and applications thereof” (JIANGSU VCARE PHARMATECH CO., LTD., priority 2019, dated 2025).

Experiment [1] relates to DNBS induced rat Crohn's disease model. As to the kind of experiment: Therapeutic activity in DNBS induced rat Crohn's disease model. It is filed as in vivo. Also noted: rat colon ulcer area: unit not given beside the values. Particulars: G3, 10 mg/kg-QD, 7 days, mean±SD. The method, then: Male wistar rats of 4-5 weeks old were adaptively fed for 5 days, and two days before the experiment, randomly divided into 6 groups:
Blank control group: G1 (Normal), 4 normal rats were selected and only given with 30% ethanol, 10 mL/kg.
0.5 mL of 50 mg/mL DNBS (DNBS dissolved in 30% ethanol) was injected into the colon of rats to induce enteritis in rats, for 40 rats in total. Eight of them were selected as model group G2 (Model), and the remaining 32 rats were administrated.
Administration group: the rats with DNBS induced enteritis were administered with ABT494 and the compound of Example 2 respectively and divided into G3-G6 groups, 8 rats/group. G3: ABT494, 10 mg/kg-QD; G4: Example 2, 0.3 mg/kg-BID; G5: Example 2, 1 mg/kg-BID; and G6: Example 2, 3 mg/kg-BID.
The rats were fasted, but fed with water for 48 hours, and a 5% glucose salt solution (10 mL/kg) was used as an energy supplement for experimental animals during the fasting period, once a day. On the day of experimental modeling, the fasting rats were anesthetized with Choutet (25 mg/kg), and then 0.5 mL of 50 mg/mL DNBS was injected from the anus to left colic flexure of the rat (about 8 cm to the anus) to induce rat enteritis. All rats were kept in a […] for 15 min until they were awaken, to prevent the backflow of DNBS. From the day of the experimental modeling, medication was given for 7 days.
After the DNBS modeling, the weights of the animals were measured and recorded every day, the daily activities of the animals were observed, and the abnormalities were recorded. During the experiment, the stool state of the rats was scored every day. On day 7, the rats were anesthetized with isoflurane (3-5%), blood was taken from the orbit, and the serum was separated and stored at −80° C. All animals were euthanized by cervical vertebra dis location after suffocation from excessive CO2 inhalation. The abdomen was cut, the colorectum was take out and longitudinally dissected, and the stool trait in the colorectum was scored. The colorectum was thoroughly rinsed with ice-cold PBS and then the ulcer surface was observed. The length and weight and ulcer area of the colon were recorded, the weight-length ratio (colon weight (g)/length (cm) ratio×100) was calculated, and the overall picture was taken. All intestinal tissue was longitudinally divided into two parts, where one part was fixed with 4% neutral […] and embedded with paraffin, and the rest colon sample was cryopreserved at −80° C.
Excel and Graphapad software were used for statistical analysis, and the results were expressed as mean±SD.

The target of the next experiment is JAK1 (Homo sapiens, UniProt P23458). The experiment is described as follows: Kinase activity test (γ33P-ATP isotopic method), JAK1. The class given is biochemical. As to conditions: for IC50: 33P-ATP 10 μM, 2 h reaction; for activity in inhibiting the JAK1 kinase compared with Tofacitinib (in words): conclusion from Table 1. As for the experimental part:
(§1) This experiment adopted a γ^33p-ATP isotopic test method to test the inhibitory effect of a compound on kinases JAK1, JAK2, JAK3 and TYK2, and obtained a half inhibitory concentration IC50 of the compound for inhibiting activity of the kinase.
(§2) 20 mM 4-hydroxyethylpiperazine ethanesulfonic acid buffer (Hepes, pH 7.5), 10 mM magnesium chloride (MgCl2), 1 mM ethylene glycol diethyl ether diamine tetraacetic acid (EGTA), 0.02% dodecyl polyethylene glycol ether (Brij35), 0.02 mg/ml bovine serum albumin (BSA), 0.1 mM sodium vanadate (Na3VO4), 2 mM dithiothreitol (DTT), and 1% dimethylsulfoxide (DMSO).
(§3) A compound is dissolved with 100% DMSO to a specific concentration, and then subjected to gradient dilution by an automatic sampling device to obtain the samples to be tested with different concentrations (DMSO solutions).
(§4) 3.1 diluting the reaction substrate with the basic reaction buffer;
(§5) 3.2 adding the kinase into the substrate solution, and gently mixing well;
(§6) 3.3 adding, by the automatic sampling system, the 100% DMSO diluted compounds with different concentrations into the kinase solution, and incubating for 20 min at room temperature; and
(§7) 3.4 adding ^33p-ATP (10 μM, 10 μCi/μl) at room temperature to initiate the kinase reaction for a duration of 2 h.
(§8) The unreacted ATP and the reaction-generated […] in the reaction were removed by an ion exchange filtering system, and then the amount of radioactivity of ^33p isotope in the substrate was detected.
(§9) According to the amount of radioactivity, the kinase activities in the systems added with the inhibitors of different concentrations were calculated, to obtain the inhibitors' effects of the compounds of different concentrations on the kinase activity; and fitting was performed with graphpad prism to obtain the inhibitory IC50 values of the compounds.

Another experiment deals with JAK2 (Homo sapiens, UniProt O60674). The experiment is described as follows: Kinase activity test (γ33P-ATP isotopic method), JAK2. The class given is biochemical. Particulars: 33P-ATP 10 μM, 2 h reaction. As for the experimental part:
as §1, §2, §3, §4, §5, §6, §7, §8, §9

The next experiment concerns the target T1, JAK3 (Homo sapiens, UniProt P52333).
T1 sequence (P52333 1-1124): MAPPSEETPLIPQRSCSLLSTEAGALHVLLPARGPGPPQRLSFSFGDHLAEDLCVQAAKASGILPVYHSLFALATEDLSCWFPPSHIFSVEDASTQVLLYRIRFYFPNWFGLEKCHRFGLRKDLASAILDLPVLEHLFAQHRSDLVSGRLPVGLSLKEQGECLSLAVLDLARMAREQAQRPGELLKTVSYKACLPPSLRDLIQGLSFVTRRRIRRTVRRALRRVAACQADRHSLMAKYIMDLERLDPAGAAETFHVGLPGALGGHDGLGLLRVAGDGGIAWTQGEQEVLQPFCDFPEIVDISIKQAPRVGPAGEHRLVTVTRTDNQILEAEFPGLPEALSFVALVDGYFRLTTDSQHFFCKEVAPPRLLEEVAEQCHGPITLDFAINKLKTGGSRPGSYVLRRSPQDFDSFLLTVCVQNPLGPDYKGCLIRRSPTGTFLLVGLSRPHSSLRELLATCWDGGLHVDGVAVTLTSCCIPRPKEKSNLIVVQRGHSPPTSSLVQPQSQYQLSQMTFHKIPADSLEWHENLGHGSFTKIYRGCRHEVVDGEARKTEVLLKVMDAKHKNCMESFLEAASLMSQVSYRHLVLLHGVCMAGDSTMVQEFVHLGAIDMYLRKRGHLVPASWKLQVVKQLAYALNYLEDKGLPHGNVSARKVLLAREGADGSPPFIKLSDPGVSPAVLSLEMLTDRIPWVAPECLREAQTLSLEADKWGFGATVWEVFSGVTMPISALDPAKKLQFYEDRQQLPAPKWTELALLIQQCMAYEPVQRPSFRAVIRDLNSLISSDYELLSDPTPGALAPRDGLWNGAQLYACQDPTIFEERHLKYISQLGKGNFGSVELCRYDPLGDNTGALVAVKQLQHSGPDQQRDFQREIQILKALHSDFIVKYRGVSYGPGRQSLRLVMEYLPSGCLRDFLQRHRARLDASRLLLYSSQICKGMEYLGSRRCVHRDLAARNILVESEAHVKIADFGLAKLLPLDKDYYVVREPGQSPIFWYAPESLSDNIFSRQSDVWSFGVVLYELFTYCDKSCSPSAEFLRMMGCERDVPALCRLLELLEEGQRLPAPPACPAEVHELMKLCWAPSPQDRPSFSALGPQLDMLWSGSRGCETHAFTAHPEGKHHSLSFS
The experiment is described as follows: Kinase activity test (γ33P-ATP isotopic method), JAK3. The class given is biochemical. Particulars: 33P-ATP 10 μM, 2 h reaction. The method, then: as §1, §2, §3, §4, §5, §6, §7, §8, §9

Experiment [2] has as its system DSS induced mouse ulcerative colitis model. The experiment is described as follows: Efficacy test in DSS induced mouse ulcerative colitis model. It is filed as in vivo. As to conditions: 100 mg/kg group, once a day, mouse DSS model, DAI range 0-4. An excerpt:
Mice of 6-7 weeks old were randomly grouped, 6 mice per group. Purified water was provided ad libitum to the mice in a negative control group, and a 2% solution of dextran sulfate sodium (DSS) was provided ad libitum to the mice in other groups, for 7 consecutive days. During the modeling, medication was given according to the groups, once a day for 7 days (the treatment groups and the mouse numbers can be adjusted according to the specific situation). Within 8-10 days later, the DSS-containing water was replaced with purified water, provided ad libitum to the mice. The normal administration continued for 3 days.
From the first day of administration, the general conditions such as metal state, eating, drinking and activities of the mice were respectively observed every day, the mice were weighed every day, and the animal stools were collected, evaluated for their traits and subjected to the occult blood test. The disease activity index (DAI) of experimental animals within 1-10 days were comprehensively assessed.
Scoring was performed according to the above-mentioned standards. The disease activity index (DAI) of each mouse was obtained by summing the scores of weight loss, stool trait and occult blood condition, to evaluate the disease activity. DAI=(score of weight loss+score of stool trait+score of bloody stool)/3, ranging from 0-4.
The experimental data was processed statistically, and the data are all expressed as mean±SD or mean±SME. The SPSS13.0 software was used for statistical analysis, and the differences among the groups were compared with t test (equal variance) or t′ test (unequal variance).

Sequence of JAK1 (P23458 whole entry): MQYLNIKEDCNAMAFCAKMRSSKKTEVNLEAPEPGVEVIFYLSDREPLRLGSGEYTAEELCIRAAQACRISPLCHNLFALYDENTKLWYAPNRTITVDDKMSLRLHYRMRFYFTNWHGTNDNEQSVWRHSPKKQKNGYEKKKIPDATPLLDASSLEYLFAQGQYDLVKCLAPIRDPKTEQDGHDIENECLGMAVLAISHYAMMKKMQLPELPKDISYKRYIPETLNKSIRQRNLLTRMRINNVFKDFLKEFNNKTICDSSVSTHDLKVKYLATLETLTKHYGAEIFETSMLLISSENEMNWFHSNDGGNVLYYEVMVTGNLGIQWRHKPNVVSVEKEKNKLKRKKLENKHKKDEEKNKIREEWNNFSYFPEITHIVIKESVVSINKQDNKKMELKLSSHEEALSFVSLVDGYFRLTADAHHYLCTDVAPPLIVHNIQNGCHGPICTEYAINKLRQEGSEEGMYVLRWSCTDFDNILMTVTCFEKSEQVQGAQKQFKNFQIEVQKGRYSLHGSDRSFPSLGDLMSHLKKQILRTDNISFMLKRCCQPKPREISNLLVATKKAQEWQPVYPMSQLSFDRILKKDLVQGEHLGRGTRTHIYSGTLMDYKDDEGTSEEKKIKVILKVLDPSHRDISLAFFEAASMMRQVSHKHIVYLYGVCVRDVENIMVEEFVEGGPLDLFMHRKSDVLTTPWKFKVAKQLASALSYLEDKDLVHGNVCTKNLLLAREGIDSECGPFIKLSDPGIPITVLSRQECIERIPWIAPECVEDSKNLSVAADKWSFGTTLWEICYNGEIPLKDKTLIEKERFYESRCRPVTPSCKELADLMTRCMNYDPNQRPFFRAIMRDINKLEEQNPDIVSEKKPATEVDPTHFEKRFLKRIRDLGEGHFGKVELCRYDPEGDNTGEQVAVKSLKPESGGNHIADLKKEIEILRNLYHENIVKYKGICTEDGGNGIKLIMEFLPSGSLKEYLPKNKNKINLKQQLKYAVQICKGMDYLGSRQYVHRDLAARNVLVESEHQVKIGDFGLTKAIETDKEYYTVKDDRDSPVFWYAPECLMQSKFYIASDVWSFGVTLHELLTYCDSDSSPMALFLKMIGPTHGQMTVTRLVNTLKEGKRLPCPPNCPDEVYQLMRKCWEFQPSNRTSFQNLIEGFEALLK
Sequence of JAK2 (O60674 whole entry): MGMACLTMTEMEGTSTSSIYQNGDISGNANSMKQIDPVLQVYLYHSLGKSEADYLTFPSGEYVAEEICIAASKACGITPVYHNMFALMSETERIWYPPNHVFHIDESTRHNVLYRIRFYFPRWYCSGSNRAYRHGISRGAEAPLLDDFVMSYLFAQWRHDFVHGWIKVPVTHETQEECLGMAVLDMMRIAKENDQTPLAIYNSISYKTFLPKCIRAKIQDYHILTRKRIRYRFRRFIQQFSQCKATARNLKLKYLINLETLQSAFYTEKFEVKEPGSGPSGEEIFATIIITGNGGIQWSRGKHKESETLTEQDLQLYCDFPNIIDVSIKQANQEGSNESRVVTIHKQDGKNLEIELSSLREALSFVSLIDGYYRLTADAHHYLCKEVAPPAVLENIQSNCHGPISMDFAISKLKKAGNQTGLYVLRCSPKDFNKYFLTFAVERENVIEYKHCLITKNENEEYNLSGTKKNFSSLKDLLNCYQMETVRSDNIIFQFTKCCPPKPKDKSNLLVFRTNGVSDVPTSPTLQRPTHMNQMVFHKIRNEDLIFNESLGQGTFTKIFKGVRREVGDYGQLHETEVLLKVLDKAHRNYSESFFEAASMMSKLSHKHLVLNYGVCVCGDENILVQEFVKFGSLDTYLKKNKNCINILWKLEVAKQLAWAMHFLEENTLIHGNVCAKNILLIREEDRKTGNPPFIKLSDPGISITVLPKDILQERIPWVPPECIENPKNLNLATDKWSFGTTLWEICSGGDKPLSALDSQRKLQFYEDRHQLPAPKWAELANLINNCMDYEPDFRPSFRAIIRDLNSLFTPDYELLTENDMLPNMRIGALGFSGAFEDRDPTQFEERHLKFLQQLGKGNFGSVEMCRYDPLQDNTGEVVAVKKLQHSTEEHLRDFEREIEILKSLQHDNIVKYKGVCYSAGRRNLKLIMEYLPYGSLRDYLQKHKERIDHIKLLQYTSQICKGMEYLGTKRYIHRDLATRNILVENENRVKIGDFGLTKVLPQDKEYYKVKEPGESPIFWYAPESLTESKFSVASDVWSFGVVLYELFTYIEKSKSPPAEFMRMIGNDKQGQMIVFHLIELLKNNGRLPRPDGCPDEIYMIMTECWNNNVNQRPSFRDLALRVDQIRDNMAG

In the case of `CC[C@@H]1CN(C(=O)NCC(F)(F)F)C[C@@H]1c1cnc2cnc3[nH]ccc3n12` [ABT494, reference compound], the colon weight-length ratio in experiment [1] (colon weight (g)/length (cm) ratio×100, model group G2 14.6±5.1) was 13.4±5.2. Moreover, the “rat colon ulcer area” value in experiment [1] (model group G2 1.54±2.00) is 1.37±1.72.

As to `NC(=O)c1cnc2[nH]ccc2c1NN1CCC[C@@H](C(=O)NCC(F)F)C1` [Example 4, (R)-4-(3-(2,2-difluoroethylcarbamoyl)piperidine-1-amino)-1H-7-azaindole-5-carboxamide], the IC50 turned out to be 0.0343 µM on JAK1, 0.522 µM on JAK2 and 0.224 µM against JAK3.

As to `NC(=O)c1cnc2[nH]ccc2c1NN1CCC[C@H](C(=O)NC2CC2)C1` [Example 6, (S)-4-(3-(cyclopropylcarbamoyl)piperidine-1-amino)-1H-7-azaindole-5-carboxamide], the IC50 on JAK1 was 0.00106 µM; against JAK2, 0.0446 µM; against JAK3, 0.0217 µM.

For the molecule `CCOC(=O)[C@H]1CCCN(Nc2c(C(N)=O)cnc3[nH]ccc23)C1` [Example 8], the IC50 is 0.00203 µM against JAK1, 0.0465 µM on JAK2 and 0.00867 µM on JAK3.

Take `NC(=O)c1cnc2[nH]ccc2c1NN1CCC(C(=O)NCC(F)(F)F)C1` (stereo not shown) [Example 9]: the IC50 turned out to be 0.00066 µM at JAK1, 0.0425 µM at JAK2 and 0.00785 µM on JAK3. Further, at JAK1, the “activity in inhibiting the JAK1 kinase compared with Tofacitinib (in words)” value is given as “higher activity in inhibiting the JAK1 kinase than the positive drug control Tofacitinib”.

Consider `NC(=O)c1cnc2[nH]ccc2c1NN1C2CCC1COC2` [Example 10, 4-((3-oxa-8-azabicyclo[3.2.1]octan-8-yl)amino)-1H-7-azaindole-5-carboxamide], for which inhibition at JAK1 was half-maximal at 0.0519 µM (IC50).

In the case of `NC(=O)c1cnc2[nH]ccc2c1NN1[C@@H]2CC[C@H]1C[C@@H](O)C2` [Example 11, 4-((3-hydroxyl-8-azabicyclo[3.2.1]octan-8-yl)amino)-1H-7-azaindole-5-carboxamide], the IC50 is 0.0117 µM on JAK1, 0.211 µM against JAK2 and 0.0155 µM on JAK3.

For the molecule `NC(=O)c1cnc2[nH]ccc2c1NN1CCC2(CCNC2=O)CC1` [Example 14, 4-(1-keto-2,8-diazaspiro[4.5]decane-8-amino)-1H-7-azaindole-5-carboxamide], the IC50 against JAK1 is 0.0783 µM.

As for `CC1CCC(C(=O)NCC(F)(F)F)CN1Nc1c(C(N)=O)cnc2[nH]ccc12` (stereo not shown) [Example 16, 4-(2-methyl-5-(2,2,2-trifluoroethylcarbamoyl)piperidine-1-amino)-1H-7-azaindole-5-carboxamide], the concentration for half-maximal inhibition (IC50) against JAK1 came to 0.00115 µM; against JAK2, 0.0412 µM; against JAK3 it was 0.009 µM.

Regarding `NC(=O)c1cnc2[nH]ccc2c1NN1CCC(C(=O)NCC(F)(F)F)CC1` [Example 19, 4-(4-(2,2,2-trifluoroethylcarbamoyl)piperidine-1-amino)-1H-7-azaindole-5-carboxamide], the concentration for half-maximal inhibition (IC50) against JAK1 amounted to 0.024 µM; at JAK2, 0.353 µM; against JAK3, 0.0214 µM.

As for `CNC(=O)c1cnc2[nH]ccc2c1NN1CCC[C@H](C(=O)NCC(F)F)C1` [Example 22, (S)-4-((3-((2,2-difluoroethyl)carbamoyl)piperidin-1-yl)amino)-N-methyl-1H-7-pyrrolo[2,3-b]pyridine-5-carboxamide], the IC50 came out at 0.0359 µM against JAK1, 0.137 µM on JAK2 and 0.103 µM against JAK3.

As to `CNC(=O)c1cnc2[nH]ccc2c1NN1CCC[C@H](C(=O)NCC(F)(F)F)C1` [Example 23], the IC50 against JAK1 was found to be 0.00064 µM; at JAK2 it was 0.0188 µM; against JAK3 it was 0.00654 µM. The “activity in inhibiting the JAK1 kinase compared with Tofacitinib (in words)” value at JAK1 is “higher activity in inhibiting the JAK1 kinase than the positive drug control Tofacitinib”.

On to `CN(c1ccnc2[nH]ccc12)N1CCCC(C(=O)NCC#N)C1` (stereo not shown) [WO2016116025 WX14, reference compound], for which the IC50 at JAK1 was 0.0197 µM; against JAK2 it was 0.126 µM; against JAK3 it was 0.0689 µM.

Take `CN(c1ccnc2[nH]ccc12)N1CCCC(C(=O)NCC(F)(F)F)C1` (stereo not shown) [WO2016116025 WX15, reference compound]: the IC50 came out at 0.0173 µM on JAK1, 0.297 µM at JAK2 and 0.104 µM on JAK3.

For the molecule `Nc1ccc(O)c(C(=O)O)c1` [mesalazine, reference compound], the “DAI score on day 8” value in experiment [2] turned out to be 3.5.

By IC50 is commonly meant the concentration that gives 50% inhibition.
